# Tests used:
# [1] = tested on: Primary human hepatic stellate cells; test: TNFα-induced IL-6 secretion in primary human hepatic stellate cells (ELISA); assay type: cell-based; conditions: for IL-6 cytokine secretion, in words: primary human hepatic stellate cells from two donors, 3 ng/mL TNFα, 12 h
# Experimental: (§1) Primary human hepatic stellate cells were obtained from Samsara Sciences based on the following criteria for selecting donors: adult age (between 18 and 50 years), normal BMI (>18.5 and <25), and absence of confounding liver disease. Primary human hepatic stellate cells grown in Complete HSC Medium to ˜80% confluence in T75 or T150 flasks below passage 10 were seeded into sterile, collagen I coated, 96-well optical plastic microplates (ThermoScientific, 152036) at 4000 cells per well ([…]) and incubated for 6 hours at 37° C., 5% CO2 in a humidified incubator.
# (§2) After 6 hours, plates were removed from the incubator and the medium gently pipetted off and washed once with 150 μL per well DPBS. The DPBS was removed and the pretreatment medium (±single amino acid dropout, 1×HMDB DMEM+3% dialyzed FBS+0.2% Primocin, ±supplemental amino acid dose; see experiment for medium composition) was applied to the cells at 150 μL per well. Plates were returned to the incubator overnight, ˜14-15 hours.
# (§3) After overnight pretreatment, the medium was removed from the cells, and the same pretreatment medium, now supplemented with 3 ng/mL TNFα is applied. Each plate contained 3 ng/mL TNFα in 1× human plasma amino acid (HMDB or PAA) concentration medium, 0 ng/mL in 1×HMDB, and 3 ng/mL TNFα+50 nM Bengamide in 1×HMDB to serve as controls. Plates were incubated for 12 hours at 37° C., 5% CO2.
# (§4) After 12 hour stimulus with TNFα, supernatant was removed and frozen at −80° C. in two separate aliquots. Plates were washed gently once with DPBS and 100 μL per well of 1×HMDB DMEM+3% dialyzed FBS+0.2% Primocin+10% CCK-8 viability reagent (Dojindo). Plates were incubated for 1 hour at 37° C., 5% CO2.
# (§5) After 1 hour of incubation, viability was measured on the Synergy plate reader (Absorbance at 977 (test), 900 (reference), and 450 (CCK8) nm). Immediately, the medium was removed and the plates were fixed with 70 μL per well 4% paraformaldehyde in PBS at room temperature for 20 minutes, followed by two 150 μL PBS washes, and stored with 100 μL per well PBS at 4° C. until immunofluorescence staining.
# (§6) Human CCL2/MCP1 and Human IL-6 were measured by ELISA (Human […] DuoSet ELISA, R&D Systems; Human IL-6 DuoSet ELISA, R&D Systems) at 1/5 and 1/20 dilution in 1× Reagent Diluent (Reagent Ancillary Kit 2, R&D Systems). Data were normalized to the specific per well cell density determined by Hoechst stained nuclei count.
# [2] = tested on: Primary human hepatic stellate cells; test: TNFα-induced MCP-1 secretion in primary human hepatic stellate cells (ELISA); assay type: cell-based; conditions: for MCP-1 chemokine secretion, in words: primary human hepatic stellate cells from two donors, 3 ng/mL TNFα, 12 h
# Experimental: as §1, §2, §3, §4, §5, §6
compound,measurement,setting,value
CC(=O)N[C@@H](CS)C(=O)O [N-acetylcysteine],"Fold Change IL-6 Secretion Normalized Per Cell, Mean","[1]; donor 1, Conc. 1000 μM",0.7141
same,"Fold Change IL-6 Secretion Normalized Per Cell, Mean","[1]; donor 1, Conc. 2500 μM",0.7354
same,"Fold Change IL-6 Secretion Normalized Per Cell, Mean","[1]; donor 1, Conc. 5000 μM",0.6121
same,"Fold Change IL-6 Secretion Normalized Per Cell, Mean","[1]; donor 1, Conc. 10000 μM",0.5716
same,"Fold Change IL-6 Secretion Normalized Per Cell, Mean","[1]; donor 1, Conc. 5 X",0.7141
same,"Fold Change IL-6 Secretion Normalized Per Cell, Mean","[1]; donor 1, Conc. 10 X",0.7354
same,"Fold Change IL-6 Secretion Normalized Per Cell, Mean","[1]; donor 1, Conc. 20 X",0.6121
same,"Fold Change IL-6 Secretion Normalized Per Cell, Mean","[1]; donor 1, Conc. 40 X",0.5716
same,"Fold Change IL-6 Secretion Normalized Per Cell, Mean","[1]; donor 2, Conc. 1000 μM",0.9161
same,"Fold Change IL-6 Secretion Normalized Per Cell, Mean","[1]; donor 2, Conc. 2500 μM",0.9180
same,"Fold Change IL-6 Secretion Normalized Per Cell, Mean","[1]; donor 2, Conc. 5000 μM",0.8111
same,"Fold Change IL-6 Secretion Normalized Per Cell, Mean","[1]; donor 2, Conc. 10000 μM",0.7064
same,"Fold Change IL-6 Secretion Normalized Per Cell, Mean","[1]; donor 2, Conc. 5 X",0.9161
same,"Fold Change IL-6 Secretion Normalized Per Cell, Mean","[1]; donor 2, Conc. 10 X",0.9180
same,"Fold Change IL-6 Secretion Normalized Per Cell, Mean","[1]; donor 2, Conc. 20 X",0.8111
same,"Fold Change IL-6 Secretion Normalized Per Cell, Mean","[1]; donor 2, Conc. 40 X",0.7064
same,"IL-6 cytokine secretion, in words",[1],reduced IL-6 secretion in both donors but was only statistically significant in one of two donors
same,"Fold Change MCP1 Secretion Normalized Per Cell, Mean","[2]; donor 4, 1000 μM",0.6437
same,"Fold Change MCP1 Secretion Normalized Per Cell, Mean","[2]; donor 4, 2500 μM",0.8033
same,"Fold Change MCP1 Secretion Normalized Per Cell, Mean","[2]; donor 4, 5000 μM",0.6728
same,"Fold Change MCP1 Secretion Normalized Per Cell, Mean","[2]; donor 4, 10000 μM",0.5011
same,"Fold Change MCP1 Secretion Normalized Per Cell, Mean","[2]; donor 4, Conc. 5 X",0.6437
same,"Fold Change MCP1 Secretion Normalized Per Cell, Mean","[2]; donor 4, Conc. 10 X",0.8033
same,"Fold Change MCP1 Secretion Normalized Per Cell, Mean","[2]; donor 4, Conc. 20 X",0.6728
same,"Fold Change MCP1 Secretion Normalized Per Cell, Mean","[2]; donor 4, Conc. 40 X",0.5011
same,"MCP-1 chemokine secretion, in words",[2],significantly reduced MCP-1 secretion in both donors
"N=C(N)NCCC[C@H](N)C(=O)O [Arginine, L-Arginine]","IL-6 cytokine secretion, in words",[1],no significant effect
same,"MCP-1 chemokine secretion, in words",[2],no significant impact
"CC[C@H](C)[C@H](N)C(=O)O [Isoleucine, L-Isoleucine]","Fold Change IL-6 Secretion Normalized Per Cell, Mean","[1]; donor 1, Conc. 1328 μM",1.0233
same,"Fold Change IL-6 Secretion Normalized Per Cell, Mean","[1]; donor 1, Conc. 3320 μM",1.1156
same,"Fold Change IL-6 Secretion Normalized Per Cell, Mean","[1]; donor 1, Conc. 6639 μM",1.0859
same,"Fold Change IL-6 Secretion Normalized Per Cell, Mean","[1]; donor 2, Conc. 1328 μM",1.1020
same,"Fold Change IL-6 Secretion Normalized Per Cell, Mean","[1]; donor 2, Conc. 3320 μM",0.9096
same,"Fold Change IL-6 Secretion Normalized Per Cell, Mean","[1]; donor 2, Conc. 6639 μM",1.1648
same,"IL-6 cytokine secretion, in words",[1],no significant effect
same,"Fold Change MCP1 Secretion Normalized Per Cell, Mean","[2]; donor 3, 1328 μM",1.5550
same,"Fold Change MCP1 Secretion Normalized Per Cell, Mean","[2]; donor 3, 3320 μM",1.2169
same,"Fold Change MCP1 Secretion Normalized Per Cell, Mean","[2]; donor 3, 6639 μM",1.2084
same,"Fold Change MCP1 Secretion Normalized Per Cell, Mean","[2]; donor 4, 1328 μM",1.3338
same,"Fold Change MCP1 Secretion Normalized Per Cell, Mean","[2]; donor 4, 3320 μM",0.8830
same,"Fold Change MCP1 Secretion Normalized Per Cell, Mean","[2]; donor 4, 6639 μM",0.9103
"CC(C)C[C@H](N)C(=O)O [Leucine, L-Leucine]","Fold Change IL-6 Secretion Normalized Per Cell, Mean","[1]; donor 1, Conc. 3054 μM",1.1762
same,"Fold Change IL-6 Secretion Normalized Per Cell, Mean","[1]; donor 1, Conc. 7635 μM",1.1215
same,"Fold Change IL-6 Secretion Normalized Per Cell, Mean","[1]; donor 1, Conc. 15270 μM",1.0767
same,"Fold Change IL-6 Secretion Normalized Per Cell, Mean","[1]; donor 2, Conc. 3054 μM",1.0011
same,"Fold Change IL-6 Secretion Normalized Per Cell, Mean","[1]; donor 2, Conc. 7635 μM",0.9574
same,"Fold Change IL-6 Secretion Normalized Per Cell, Mean","[1]; donor 2, Conc. 15270 μM",1.0183
same,"IL-6 cytokine secretion, in words",[1],no significant effect
same,"Fold Change MCP1 Secretion Normalized Per Cell, Mean","[2]; donor 3, 3054 μM",1.1479
same,"Fold Change MCP1 Secretion Normalized Per Cell, Mean","[2]; donor 3, 7635 μM",1.3054
same,"Fold Change MCP1 Secretion Normalized Per Cell, Mean","[2]; donor 3, 15270 μM",1.1808
same,"Fold Change MCP1 Secretion Normalized Per Cell, Mean","[2]; donor 4, 3054 μM",1.5342
same,"Fold Change MCP1 Secretion Normalized Per Cell, Mean","[2]; donor 4, 7635 μM",1.7129
same,"Fold Change MCP1 Secretion Normalized Per Cell, Mean","[2]; donor 4, 15270 μM",1.5745
same,"MCP-1 chemokine secretion, in words",[2],no significant impact
"NC(=O)CC[C@H](N)C(=O)O [Glutamine, L-Glutamine]","Fold Change IL-6 Secretion Normalized Per Cell, Mean","[1]; donor 1, Conc. 749 μM",0.6320
same,"Fold Change IL-6 Secretion Normalized Per Cell, Mean","[1]; donor 1, Conc. 3747 μM",0.5460
same,"Fold Change IL-6 Secretion Normalized Per Cell, Mean","[1]; donor 1, Conc. 11242 μM",0.5136
same,"Fold Change IL-6 Secretion Normalized Per Cell, Mean","[1]; donor 1, Conc. 22484 μM",0.5138
same,"Fold Change IL-6 Secretion Normalized Per Cell, Mean","[1]; donor 2, Conc. 749 μM",0.7673
same,"Fold Change IL-6 Secretion Normalized Per Cell, Mean","[1]; donor 2, Conc. 11242 μM",0.6478
same,"Fold Change IL-6 Secretion Normalized Per Cell, Mean","[1]; donor 2, Conc. 22484 μM",0.5993
same,"IL-6 cytokine secretion, in words",[1],significantly reduced IL-6 secretion in both donors
same,"Fold Change MCP1 Secretion Normalized Per Cell, Mean","[2]; donor 3, 749 μM",0.7048
same,"Fold Change MCP1 Secretion Normalized Per Cell, Mean","[2]; donor 3, 3747 μM",0.6036
same,"Fold Change MCP1 Secretion Normalized Per Cell, Mean","[2]; donor 3, 11242 μM",0.6106
same,"Fold Change MCP1 Secretion Normalized Per Cell, Mean","[2]; donor 3, 22484 μM",0.6212
same,"Fold Change MCP1 Secretion Normalized Per Cell, Mean","[2]; donor 4, 749 μM",0.7782
same,"Fold Change MCP1 Secretion Normalized Per Cell, Mean","[2]; donor 4, 3747 μM",0.6639
same,"Fold Change MCP1 Secretion Normalized Per Cell, Mean","[2]; donor 4, 11242 μM",0.7129
same,"Fold Change MCP1 Secretion Normalized Per Cell, Mean","[2]; donor 4, 22484 μM",0.7039
same,"MCP-1 chemokine secretion, in words",[2],reduced MCP1 secretion in both donors but was only statistically significant in one of two donors
"CC(C)[C@H](N)C(=O)O [Valine, L-Valine]","Fold Change IL-6 Secretion Normalized Per Cell, Mean","[1]; donor 1, Conc. 4684 μM",0.9790
same,"Fold Change IL-6 Secretion Normalized Per Cell, Mean","[1]; donor 1, Conc. 11710 μM",0.9562
same,"Fold Change IL-6 Secretion Normalized Per Cell, Mean","[1]; donor 1, Conc. 23420 μM",1.0404
same,"Fold Change IL-6 Secretion Normalized Per Cell, Mean","[1]; donor 2, Conc. 4684 μM",1.0383
same,"Fold Change IL-6 Secretion Normalized Per Cell, Mean","[1]; donor 2, Conc. 11710 μM",0.9218
same,"Fold Change IL-6 Secretion Normalized Per Cell, Mean","[1]; donor 2, Conc. 23420 μM",0.9015
same,"IL-6 cytokine secretion, in words",[1],no significant effect
same,"Fold Change MCP1 Secretion Normalized Per Cell, Mean","[2]; donor 3, 4684 μM",1.0630
same,"Fold Change MCP1 Secretion Normalized Per Cell, Mean","[2]; donor 3, 11710 μM",1.0204
same,"Fold Change MCP1 Secretion Normalized Per Cell, Mean","[2]; donor 3, 23420 μM",1.2651
same,"Fold Change MCP1 Secretion Normalized Per Cell, Mean","[2]; donor 4, 4684 μM",1.0942
same,"Fold Change MCP1 Secretion Normalized Per Cell, Mean","[2]; donor 4, 11710 μM",1.1544
same,"Fold Change MCP1 Secretion Normalized Per Cell, Mean","[2]; donor 4, 23420 μM",1.1525
same,"MCP-1 chemokine secretion, in words",[2],no significant impact
